Measurements as given in paper PMC11937972 (JACS Au, 2025).
Like-named read-outs stand apart in the source and are kept apart here. Blank lines part the entries; values can stand above or below the molecule they belong to.

How the values were obtained:
[1] = biological target: T1, URAT1^EM (humanized rat URAT1, rURAT1-3M) (Rattus norvegicus, UniProt Q3ZAV1, M481I/N35S/Y365F); experiment: cell-based
T1 sequence (Q3ZAV1 1-553 N35S/Y365F/M481I): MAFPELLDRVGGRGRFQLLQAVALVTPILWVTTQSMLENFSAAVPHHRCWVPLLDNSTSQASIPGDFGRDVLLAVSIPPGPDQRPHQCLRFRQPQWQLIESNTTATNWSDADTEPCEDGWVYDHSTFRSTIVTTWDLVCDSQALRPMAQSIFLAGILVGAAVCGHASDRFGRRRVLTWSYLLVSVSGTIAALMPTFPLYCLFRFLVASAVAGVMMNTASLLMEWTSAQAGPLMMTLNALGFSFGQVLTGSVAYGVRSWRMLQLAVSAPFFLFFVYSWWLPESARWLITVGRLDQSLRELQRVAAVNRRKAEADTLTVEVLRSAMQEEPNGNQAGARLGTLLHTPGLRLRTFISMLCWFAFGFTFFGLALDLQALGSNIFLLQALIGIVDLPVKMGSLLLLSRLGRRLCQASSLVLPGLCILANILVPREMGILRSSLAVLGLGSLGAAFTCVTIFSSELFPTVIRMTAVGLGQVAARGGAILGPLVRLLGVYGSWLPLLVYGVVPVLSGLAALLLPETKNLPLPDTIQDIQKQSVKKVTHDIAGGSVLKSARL

human URAT1 (hURAT1) = biological target: T2, human URAT1 (hURAT1) (Homo sapiens, UniProt Q96S37); experiment: inhibition of urate uptake in transfected HEK293T cells; format: cell-based
T2 sequence (Q96S37 1-553): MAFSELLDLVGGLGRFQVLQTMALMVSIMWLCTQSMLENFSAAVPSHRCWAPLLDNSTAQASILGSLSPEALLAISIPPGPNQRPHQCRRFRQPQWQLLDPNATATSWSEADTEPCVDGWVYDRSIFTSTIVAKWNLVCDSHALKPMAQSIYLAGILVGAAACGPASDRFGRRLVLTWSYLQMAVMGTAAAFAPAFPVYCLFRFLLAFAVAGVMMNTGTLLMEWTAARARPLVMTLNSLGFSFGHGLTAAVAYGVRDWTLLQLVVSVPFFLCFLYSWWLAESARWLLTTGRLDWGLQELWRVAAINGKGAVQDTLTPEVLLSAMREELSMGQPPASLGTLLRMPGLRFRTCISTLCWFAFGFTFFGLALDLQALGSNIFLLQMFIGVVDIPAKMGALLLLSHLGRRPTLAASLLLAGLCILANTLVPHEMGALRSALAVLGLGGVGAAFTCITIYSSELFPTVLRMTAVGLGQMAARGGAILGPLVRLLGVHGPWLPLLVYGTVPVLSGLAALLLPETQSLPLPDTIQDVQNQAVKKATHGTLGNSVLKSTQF

[2] = biological target: T1, URAT1^EM (humanized rat URAT1, rURAT1-3M); experiment: cryo-EM structure at […] Å; format: cell-based
[3] = substrate: O=c1[nH]c(=O)c2[nH]c(=O)[nH]c2[nH]1; experiment: concentration-dependent urate uptake in HEK293T cells, Km; format: cell-based, Homo sapiens
[4] = substrate: O=c1[nH]c(=O)c2[nH]c(=O)[nH]c2[nH]1; experiment: as above; format: cell-based, Rattus norvegicus

B1: human URAT1 (hURAT1) (Homo sapiens) (protein)
chain: MAFSELLDLVGGLGRFQVLQTMALMVSIMWLCTQSMLENFSAAVPSHRCWAPLLDNSTAQASILGSLSPEALLAISIPPGPNQRPHQCRRFRQPQWQLLDPNATATSWSEADTEPCVDGWVYDRSIFTSTIVAKWNLVCDSHALKPMAQSIYLAGILVGAAACGPASDRFGRRLVLTWSYLQMAVMGTAAAFAPAFPVYCLFRFLLAFAVAGVMMNTGTLLMEWTAARARPLVMTLNSLGFSFGHGLTAAVAYGVRDWTLLQLVVSVPFFLCFLYSWWLAESARWLLTTGRLDWGLQELWRVAAINGKGAVQDTLTPEVLLSAMREELSMGQPPASLGTLLRMPGLRFRTCISTLCWFAFGFTFFGLALDLQALGSNIFLLQMFIGVVDIPAKMGALLLLSHLGRRPTLAASLLLAGLCILANTLVPHEMGALRSALAVLGLGGVGAAFTCITIYSSELFPTVLRMTAVGLGQMAARGGAILGPLVRLLGVHGPWLPLLVYGTVPVLSGLAALLLPETQSLPLPDTIQDVQNQAVKKATHGTLGNSVLKSTQF
Km [3]: 80 µM

B2: URAT1^EM (humanized rat URAT1, rURAT1-3M) (Rattus norvegicus; M481I/N35S/Y365F) (protein)
chain: MAFPELLDRVGGRGRFQLLQAVALVTPILWVTTQSMLENFSAAVPHHRCWVPLLDNSTSQASIPGDFGRDVLLAVSIPPGPDQRPHQCLRFRQPQWQLIESNTTATNWSDADTEPCEDGWVYDHSTFRSTIVTTWDLVCDSQALRPMAQSIFLAGILVGAAVCGHASDRFGRRRVLTWSYLLVSVSGTIAALMPTFPLYCLFRFLVASAVAGVMMNTASLLMEWTSAQAGPLMMTLNALGFSFGQVLTGSVAYGVRSWRMLQLAVSAPFFLFFVYSWWLPESARWLITVGRLDQSLRELQRVAAVNRRKAEADTLTVEVLRSAMQEEPNGNQAGARLGTLLHTPGLRLRTFISMLCWFAFGFTFFGLALDLQALGSNIFLLQALIGIVDLPVKMGSLLLLSRLGRRLCQASSLVLPGLCILANILVPREMGILRSSLAVLGLGSLGAAFTCVTIFSSELFPTVIRMTAVGLGQVAARGGAILGPLVRLLGVYGSWLPLLVYGVVPVLSGLAALLLPETKNLPLPDTIQDIQKQSVKKVTHDIAGGSVLKSARL
Km [4]: 203 µM

More lines, main results first:

IC50 [1]: 425 nM
Molecule: CCc1oc2ccccc2c1C(=O)c1cc(Br)c(O)c(Br)c1 [BEN, benzbromarone]

IC50 [2]: 150 nM
Molecule: CC(C)(Sc1ccncc1-c1ccc(C#N)c2ccccc12)C(=O)O [VER, verinurad]
IC50 (human URAT1 (hURAT1)): Inhibition of human URAT1 WT and variants by verinurad.
